According to article PMC11603412, “Anti-hepatocellular carcinoma activities of novel hydrazone derivatives via downregulation of interleukin-6” (RSC Advances, 2024):
Entries after “also recorded” stand apart in the source; their conditions may differ.

Tests used:
HepG2 cell line = test: MTT cytotoxicity assay, HepG2; type: cell-based, human; settings: for IC50: Homo sapiens, HepG2, 24 h; for cytotoxic action against HepG2: MTT assay, in words
Protocol: (§1) The HepG2 cell line was obtained from ATCC (Rockville, MD). Liver mesenchymal stem cells were harvested from liver biopsy according to previously published protocols.[34] Cells were grown in DMEM media with 10% fetal bovine serum (FBS), 100 U per mL penicillin, and […] streptomycin at 37 °C, 5% CO2. The MTT assay kit, which relies on succinate dehydrogenase in living cells' mitochondria to convert the 3-(4,5-dimethylthiazol-2-yl)-2,5-diphenyltetrazolium bromide (MTT) dye to violet formazan crystals, was used to calculate the vitality of individual cells. 6000 cells per well were seeded in the 96-well plate containing, which were then incubated for 24 h. Different concentrations of drug were dissolved in DMEM and then added to the wells to replace the culture medium. The medium was discarded after incubation for 24 h under the same conditions, and 100 μL of MTT (2 mg mL^−1) were added. After 3 h of incubation at 37 °C, the generated formazan crystals generated were dissolved in 50 μL of DMSO. The optical density was then measured using a Stat Fax ELISA plate reader (Romer Labs, Getzersdorf, Austria) at 570 nm with a reference wavelength of 630 nm after incubating the plate at 37 °C for 15 min. As a positive control, the tyrosine kinase inhibitor sorafenib (Bayer, Germany) was employed. DMSO was used as a solvent and its final concentration was less than 0.2%. SI and IC50 were calculated. Triplicates of each in vitro test were performed.[33]

[1] = test system: Liver mesenchymal stem cells; test: MTT cytotoxicity assay, liver mesenchymal stem cells (normal cell line); type: cell-based; settings: 24 h
Protocol: as §1

HepG2 cells [2] = test: Wound healing (cell migration) assay; type: cell-based, human; settings: for cell migration of HepG2 cells: 24 h, versus untreated control; for antimigration effect compared to sorafenib: HepG2, 24 h, quantified relative migration
Protocol: The wound healing assay was used to investigate the anti-cell migration/antiproliferation effects of synthesized hydrazone derivatives on the HepG2 cell line. In DMEM medium supplemented with 10% fetal bovine serum (FBS), 100 U per mL penicillin, and […] streptomycin, cells were cultured at 37 °C and 5% CO2. After reaching 80% density, the monolayer cells were scratched using a sterile tip and then washed with phosphate buffered saline, pH 7.4. Different hydrazone derivatives were applied to cells, which were then incubated for 24 h at 37 °C and 5% CO2. Finally, an Olympus microscope (Olympus Europa, Hamburg, Germany) was used to take pictures of the wound areas at 0 and 24 h. The relative cell migration was calculated using the following equation:Relative migration = (width0h − width24h)/width0h

HepG2 cells [3] = test: Active caspase 3 apoptosis flow cytometry; type: cell-based, human; settings: for percentage of apoptotic cells compared to the control group: HepG2, active caspase 3, in words; for percentage of apoptotic cells: HepG2, active caspase 3, text value
Protocol: (§2) Cells were harvested, aliquoted up to 1 × 10^6 cells/100 μL in FACS tubes, washed twice with 2 mL of PBS, centrifuged at 300 × g for five minutes, and the buffer was decanted. Reconstituted cells in 100 μL of staining buffer for flow cytometry. HepG2 cells were stained with propidium iodide according to the technique offered via the kit and subsequently performed on the cytometer. The distribution of the cell cycles was estimated and analyzed using a FACScan TM device (BD, Franklin Lakes, NJ). Furthermore, the caspase-3 apoptotic marker levels were investigated by flow cytometry. During the flow cytometry assay, we investigated a population of HepG2 cells to obtain enough cells for statistically significant detection.
FITC active caspase-3 apoptosis kit (BD Biosciences, Franklin Lakes, NJ, USA) was used for detection of active caspase 3 followed by flow cytometry analysis according to the instructions of the kit manufacturer.

HepG2 cells [4] = test: Propidium iodide cell cycle flow cytometry; type: cell-based, human
Protocol: as §2

IL-6 = IL-6 gene expression (RT-PCR); type: cell-based; settings: normalised to β-actin, versus control group
Protocol: After two rounds of PBS washing, total RNA was extracted using the TRIzol Reagent, and cDNA synthesis was performed using the high-capacity cDNA reverse transcription kit in accordance with the manufacturer's instructions. The qPCR reaction mixture contained so-fast EvaGreen supermix (10 μL), cDNA (2 μL), invitrogen RT-PCR grade water (6 μL), and the primer pair (500 nM; forward primer 5′-CAAATTCGGTACATCCTC-3′, reverse primer 5′-CTGGCTTGTTCCTCACTA-3′). The amplification started with heating 10 min at 95 °C, followed by 40 cycles of 15 s at 95 °C, 20 s at 55 °C and 30 s at 72 °C. The amplification data was then analyzed as previously described previously with normalization to β-actin.[35]

Cytochrome C = Cytochrome C sandwich ELISA; type: cell-based; settings: versus control group
Protocol: Cytochrome C was quantified using a sandwich ELISA kit (Abcam, Cambridge, UK) according to the manufacturer's procedures. After the addition of the TMB substrate and the development of the color, the optical density was measured using a Stat fax microplate reader, USA, at 450 nm.

Compound	IC50 (HepG2 cell line) [µM]	cytotoxic action against HepG2 (HepG2 cell line)	IC50 [1] [µM]	cell migration of HepG2 cells (HepG2 cells [2])	percentage of apoptotic cells compared to the control group (HepG2 cells [3])	antimigration effect compared to sorafenib (HepG2 cells [2])	percentage of apoptotic cells (HepG2 cells [3]) [%]	cells in G2/M phase (HepG2 cells [4]) [%]	cells in S-phase (HepG2 cells [4]) [%]	cells in the G0/G1 phase (HepG2 cells [4]) [%]	IL-6 mRNA expression (IL-6)	cytochrome C concentration (Cytochrome C)
NN=C(C1CC1)C1CC1 [Compound 2, dicyclopropylmethylene hydrazone]	94.7	excellent cytotoxic action	> 100	substantially reduced	increased significantly							
Oc1ccccc1/C=N\N1C(c2ccccc2)=NNC1c1ccccc1O (centres unmarked) [Compound 8b]	> 100		75.5									
Cc1nc2ccccc2c(=O)n1N=C(C1CC1)C1CC1 [Compound 11, 3-((dicyclopropylmethylene)amino)-2-methylquinazolin-4(3H)-one]	> 100		> 100									
Oc1ccccc1/C=N/N=C/c1ccccc1O [Compound 5]	75.8		> 100									
O=C1Nc2ccccc2C12NN=C(c1ccccc1)N2N=C(C1CC1)C1CC1 (centres unmarked) [Compound 7b]	> 100		100									
NC1=NNC2(C(=O)Nc3ccccc32)N1N=C(C1CC1)C1CC1 (centres unmarked) [Compound 7a]	> 100		> 100									
COc1ccc(/C=N\N=C(C2CC2)C2CC2)cc1 [Compound 3a]	48.2		> 100									
Cc1nc2ccccc2c(=O)n1NC(=S)N=C(C1CC1)C1CC1 [Compound 20]	48.6	excellent cytotoxic action	61.5	substantially reduced	increased significantly	significant antimigration effect						
O=C1Nc2ccccc2/C1=N/N=C(C1CC1)C1CC1 [Compound 4, 3-(dicyclopropylmethylene)hydrazone indolin-2-one]	53.7	excellent cytotoxic action	100	substantially reduced	increased significantly							
O=[N+]([O-])c1ccc(/C=N\N=C(C2CC2)C2CC2)cc1 [Compound 3b]	> 100		90.2									
CNC(=O)c1cc(Oc2ccc(NC(=O)Nc3ccc(Cl)c(C(F)(F)F)c3)cc2)ccn1 [Sorafenib, reference compound]	25.6	excellent cytotoxic action	100	substantially reduced	increased significantly		75	10.68	4.17	74.93	significant (P < 0.001) decrease	significant increase
O=C1C(=O)c2ccccc2C2=C1NNC(C1CC1)(C1CC1)O2 [Compound 13]	61.4	excellent cytotoxic action	85.2	substantially reduced	increased significantly	significant antimigration effect						
NC1=CC(=O)NNC1(C1CC1)C1CC1 [Compound 18]	89.5	excellent cytotoxic action	100	substantially reduced	increased significantly							
O=C1CCC(=O)N1N=C(C1CC1)C1CC1 [Compound 16]	23.6	excellent cytotoxic action	76.5	substantially reduced	increased significantly	significant antimigration effect	80	1.2	4.5		significant (P < 0.001) decrease	significant increase; also recorded: increase in cytochrome C greater than sorafenib
NC1=NNC(c2ccccc2O)N1/N=C\c1ccccc1O (centres unmarked) [Compound 8a]	62.2	excellent cytotoxic action	100	substantially reduced	increased significantly							
